From patent US10344026B2, “Compositions and methods of targeting mutant K-ras” (NANTBIO, INC., priority 2017, dated 2019)
Like-named read-outs stand apart in the source and are kept apart here.

Assays:
Format in all cases: cell-based
[1] = system: phospho-ERK in Panc1 (G12D); test: In-Cell Western phospho-ERK, Panc1; conditions: Homo sapiens, PANC-1, 1 h; Panc1, one hour treatment; read-out: In-Cell Western Panc1 (G12D) Erk (P)
Protocol: (§1) In-cell phosphorylation assays for Erk and Akt were performed on several of the compounds and exemplary results are shown in Table 3 below using HCC827 and A375 cell lines for wild type K-Ras and Panc1 and Panc10.05 cell lines for G12D K-Ras mutants. Results are expressed in μM and corresponding structures are shown in FIGS. 2A-2G and Examples 1-152, above.
(§2) Cells are seeded in complete medium into black sided, clear-bottom 384-well microplates at 3000 cells/[…]/well. Plates are returned to 37° C. CO2 incubator for 18 hr. Drug is made as 200× in DMSO and diluted into medium to 10×. To each well is added 4 ul 10× test article or controls, and plates are returned to the incubator. Final assay DMSO concentration is 0.5%. After one hour, cells are fixed in formaldehyde, rinsed & permeabilized with triton X-100, and blocked with BSA/Goat serum blocking solution. Primary phospho-Akt and phospho-ERK antibodies are added and plates are incubated overnight at 4° C. Plates are rinsed with Tween-20 wash buffer and secondary antibody (Goat anti-rabbit, Thermofisher) is added. After 2 hours, plates are rinsed in Tween-20 wash buffer, and then PBS. Plates are imaged on the Celigo (Nexcelom) and cellular fluorescence is quantitated. Full inhibition of phospho-Akt is achieved with 1 uM BEZ235 (Sellekchem), while full inhibition of phospho-ERK is achieved with 1 uM MEK Inhibitor II Calbiochem). EC50 values are calculated using Graphpad Prism.

[2] = system: U87-MG (K-Ras wild type cell line); test: Viability assay (CellTiterBlue, 72 hr) U87-MG; conditions: Homo sapiens, U-87 MG, GI50, CellTiterBlue, U87-MG K-Ras wild-type
Protocol: (§3) Viability assays were performed on exemplary compounds and Table 2 below lists exemplary results for selected compounds tested on K-Ras wild type cell lines (Ishikawa, U87-MG, HCC827, and A375) and various K-Ras mutant cell lines (Panc1-G12D; Panc10.05-G12D; HCT116-G31D). Results are expressed in μM and corresponding structures are shown in FIGS. 2A-2G and Examples 1-152, above.
(§4) Cells are counted and seeded at 1000 cells/36 ul medium/well into 384-well microplates. Cells are returned to 37° C. CO2 incubator for 18 hr. Drug is made as 200× in DMSO and diluted into medium to 10×. To each well is added 4 ul 10× drug, and plates are returned to the incubator. Final assay DMSO concentration is 0.5%. After 72 hr, 8 ul CellTiterBlue (Promega) is added to each well. After 3 hr, fluorescence (Ex550/Em590) is determined on the Victor Plate Reader (Perkin Elmer). Assay range is determined by DMSO control (100% viability) and 100 uM tamoxifen (0% viability). GI50 values are calculated using Graphpad Prism.

HCT116-G31D = test: Viability assay (CellTiterBlue, 72 hr) HCT116; conditions: Homo sapiens, HCT-116, GI50, CellTiterBlue, read-out: 72 hr Cell Viability HCT116 (G13D)
Protocol: as §3, §4

[3] = system: Ishikawa (K-Ras wild type cell line); test: Viability assay (CellTiterBlue, 72 hr) Ishikawa; conditions: Homo sapiens, GI50, CellTiterBlue
Protocol: as §3, §4

[4] = system: phospho-Akt in Panc1 (G12D); test: In-Cell Western phospho-Akt, Panc1; conditions: Homo sapiens, PANC-1, 1 h; Panc1, one hour treatment; read-out: In-Cell Western Panc1 (G12D) Akt (P)
Protocol: as §1, §2

Panc10.05-G12D = test: Viability assay (CellTiterBlue, 72 hr) Panc10.05; conditions: Homo sapiens, Panc1005, GI50, CellTiterBlue, read-out: 72 hr Cell Viability Panc10.05 (G12D)
Protocol: as §3, §4

[5] = system: phospho-ERK in Panc10.05 (G12D); test: In-Cell Western phospho-ERK, Panc10.05; conditions: Homo sapiens, Panc1005, 1 h; Panc10.05, one hour treatment; read-out: In-Cell Western Panc10.05 (G12D) Erk (P)
Protocol: as §1, §2

Panc1-G12D = test: Viability assay (CellTiterBlue, 72 hr) Panc1; conditions: Homo sapiens, PANC-1, GI50, CellTiterBlue, read-out: 72 hr Cell Viability Panc1 (G12D)
Protocol: as §3, §4

[6] = system: phospho-Akt in Panc10.05 (G12D); test: In-Cell Western phospho-Akt, Panc10.05; conditions: Homo sapiens, Panc1005, 1 h; Panc10.05, one hour treatment; read-out: In-Cell Western Panc10.05 (G12D) Akt (P)
Protocol: as §1, §2

[7] = system: HCC827 (K-Ras wild type cell line); test: Viability assay (CellTiterBlue, 72 hr) HCC827; conditions: Homo sapiens, GI50, CellTiterBlue
Protocol: as §3, §4

wild type K-Ras = target: T1, wild type K-Ras (Homo sapiens, UniProt P01116); test: G-LISA Ras activation, 293H cells transfected with Ras wild-type, EGF stimulated; conditions: compound 1 hour, then 100 ng/ml EGF 2 minutes
T1 construct: expressed in transfected cells; host or cells: 293H cells
T1 sequence (P01116 whole entry): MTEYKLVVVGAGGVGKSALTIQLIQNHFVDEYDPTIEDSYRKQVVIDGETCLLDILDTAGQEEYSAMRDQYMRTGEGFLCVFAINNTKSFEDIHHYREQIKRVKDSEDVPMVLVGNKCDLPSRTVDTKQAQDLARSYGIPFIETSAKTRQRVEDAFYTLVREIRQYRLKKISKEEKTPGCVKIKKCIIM
Protocol: (§5) 293H cells were seeded in 6-wells at 0.6×10^6 cells per well and transfected next day with 5 μg of Ras wild-type, or G12C, G12D or G12V mutant DNA plasmid vector using transfection reagent Lipofectamine 3000. Next day cells were treated with 3.125-25 μM of Ras compounds for 1 hour. Wild-type transfected cells were subsequently treated with 100 ng/ml EGF for 2 minutes. Cells were washed once in ice-cold PBS, lysed in complete lysis buffer on ice, and processed by G-LISA according to Cytoskeleton protocol.

K-Ras G12D = target: T2, K-Ras G12D (Homo sapiens, UniProt P01116, G12D); test: G-LISA Ras activation, 293H cells transfected with G12D mutant; conditions: compound 1 hour
T2 construct: expressed in transfected cells; host or cells: 293H cells
T2 sequence (P01116 whole entry G12D): as the sequence (P01116 whole entry) above, with G12D counted along it
Protocol: as §5

Row | IC50 (wild type K-Ras) | IC50 (K-Ras G12D) | Structure (SMILES) | EC50 [1] | IC50 [2] | IC50 (HCT116-G31D; HCT116 K-Ras G13D) | IC50 ([3]; Ishikawa K-Ras wild-type) | EC50 [4] | IC50 (Panc10.05-G12D; Panc10.05 K-Ras G12D) | EC50 [5] | IC50 (Panc1-G12D; Panc1 K-Ras G12D) | EC50 [6] | IC50 ([7]; HCC827 K-Ras wild-type) | IC50 (HCT116-G31D; HCT116 cells (K-Ras G13D)) | IC50 ([3]; Ishikawa cells (K-Ras wild-type)) | IC50 (Panc10.05-G12D; Panc10.05 cells (K-Ras G12D)) | IC50 (Panc1-G12D; Panc1 cells (K-Ras G12D)) | IC50 ([7]; HCC827 cells (K-Ras wild-type))
1 | – | – | CCc1nc(C)c(C(=O)Nc2nc(-c3ccc4c(c3)CCC(=O)N4Cc3ccncc3)cs2)o1 [Compound 65, 2-ethyl-4-methyl-N-(4-(2-oxo-1-(pyridin-4-ylmethyl)-1,2,3,4-tetrahydroquinolin-6-yl)thiazol-2-yl)oxazole-5-carboxamide] | > 25 µM | > 25 µM | > 25 µM | > 25 µM | > 25 µM | 15 µM | > 25 µM | > 25 µM | – | – | – | – | – | – | –
2 | – | – | Cc1ncccc1C(=O)Nc1nc(-c2ccc3c(c2)CCC(=O)N3)cs1 [Compound 17, 2-methyl-N-(4-(2-oxo-1,2,3,4-tetrahydroquinolin-6-yl)thiazol-2-yl)nicotinamide] | > 25 µM | – | > 25 µM | > 25 µM | > 25 µM | 4 µM | > 25 µM | 7 µM | 23 µM | > 25 µM | – | – | – | – | –
3 | 3.8 µM | 9.3 µM | Cc1nc(C)c(C(=O)Nc2nc(-c3ccc4c(c3)CCC(=O)N4)cs2)s1 [Compound 1, 2,4-dimethyl-N-(4-(2-oxo-1,2,3,4-tetrahydroquinolin-6-yl)thiazol-2-yl)thiazole-5-carboxamide] | – | – | – | – | – | – | – | – | – | – | – | – | – | – | –
4 | – | – | Cc1cn(C)nc1C(=O)Nc1nc(-c2ccc3c(c2)CCC(=O)N3)cs1 [Compound 23, 1,4-dimethyl-N-(4-(2-oxo-1,2,3,4-tetrahydroquinolin-6-yl)thiazol-2-yl)-1H-pyrazole-3-carboxamide] | > 25 µM | – | > 25 µM | > 25 µM | > 25 µM | 2 µM | > 25 µM | > 25 µM | > 25 µM | > 25 µM | – | – | – | – | –
5 | – | – | Cc1nc(C(=O)Nc2nc(-c3ccc4c(c3)CCC(=O)N4)cs2)c(C)o1 [Compound 9, 2,5-dimethyl-N-(4-(2-oxo-1,2,3,4-tetrahydroquinolin-6-yl)thiazol-2-yl)oxazole-4-carboxamide] | > 25 µM | – | > 25 µM | > 25 µM | > 25 µM | > 25 µM | > 25 µM | > 25 µM | > 25 µM | > 25 µM | – | – | – | – | –
6 | – | – | Cc1nc(C2CCN(C)CC2)sc1C(=O)Nc1nc(-c2ccc3c(c2)CCC(=O)N3)cs1 [Compound 16, 4-methyl-2-(1-methylpiperidin-4-yl)-N-(4-(2-oxo-1,2,3,4-tetrahydroquinolin-6-yl)thiazol-2-yl)thiazole-5-carboxamide] | – | > 25 µM | 9 µM | > 25 µM | > 25 µM | 11 µM | – | 3 µM | > 25 µM | – | – | – | – | – | –
7 | – | – | Cc1nc(NS(C)(=O)=O)sc1C(=O)Nc1nc(-c2ccc3c(c2)CCC(=O)N3)cs1 [Compound 13, 4-methyl-2-(methylsulfonamido)-N-(4-(2-oxo-1,2,3,4-tetrahydroquinolin-6-yl)thiazol-2-yl)thiazole-5-carboxamide] | – | > 25 µM | 21 µM | > 25 µM | > 25 µM | > 25 µM | – | > 25 µM | > 25 µM | – | – | – | – | – | –
8 | 25.1 µM | 10.9 µM | Cc1nc(C)c(C(=O)Nc2nc(-c3ccc4c(c3)CCC(=O)N4)cs2)o1 [Compound 4, 2,4-dimethyl-N-(4-(2-oxo-1,2,3,4-tetrahydroquinolin-6-yl)thiazol-2-yl)oxazole-5-carboxamide] | – | – | – | – | – | – | – | – | – | – | – | – | – | – | –
9 | – | – | Cc1ncc(C(=O)Nc2nc(-c3ccc4c(c3)CCC(=O)N4)cs2)c(C)n1 [Compound 148, 2,4-dimethyl-N-(4-(2-oxo-1,2,3,4-tetrahydroquinolin-6-yl)thiazol-2-yl)pyrimidine-5-carboxamide] | > 25 µM | – | – | – | > 25 µM | – | > 25 µM | – | > 25 µM | – | > 25 µM | 18 µM | 2 µM | 4 µM | 11 µM
10 | – | – | Cc1nc(C2CCCCC2)sc1C(=O)Nc1nc(-c2ccc3c(c2)CCC(=O)N3)cs1 [Compound 146, 2-cyclohexyl-4-methyl-N-(4-(2-oxo-1,2,3,4-tetrahydroquinolin-6-yl)thiazol-2-yl)thiazole-5-carboxamide] | 5 µM | – | > 25 µM | > 25 µM | > 25 µM | 8 µM | 9 µM | 13 µM | > 25 µM | – | – | – | – | – | –
11 | – | – | CC(=O)Nc1nc(C)c(C(=O)Nc2nc(-c3ccc4c(c3)CCC(=O)N4)cs2)s1 [Compound 14, 2-acetamido-4-methyl-N-(4-(2-oxo-1,2,3,4-tetrahydroquinolin-6-yl)thiazol-2-yl)thiazole-5-carboxamide] | > 25 µM | > 25 µM | > 25 µM | > 25 µM | > 25 µM | 6 µM | 26 µM | > 25 µM | – | – | – | – | – | – | –
12 | – | – | Cc1nc(NC(=O)Nc2ccccc2)sc1C(=O)Nc1nc(-c2ccc3c(c2)CCC(=O)N3)cs1 [Compound 15] | 2 µM | 15 µM | > 25 µM | 15 µM | – | 1.3 µM | > 25 µM | > 25 µM | > 25 µM | – | – | – | – | – | –
13 | – | – | Cc1nc(C)c(C(=O)Nc2nc(-c3ccc4c(c3)CCC(=O)N4)c(Cl)s2)s1 [Compound 144, N-(5-chloro-4-(2-oxo-1,2,3,4-tetrahydroquinolin-6-yl)thiazol-2-yl)-2,4-dimethylthiazole-5-carboxamide] | 6 µM | 11 µM | > 25 µM | > 25 µM | 16 µM | 10 µM | 10 µM | 8 µM | > 25 µM | – | – | – | – | – | –

Row | Structure (SMILES) | IC50 (wild type K-Ras) | IC50 (K-Ras G12D) | EC50 [1] | IC50 [2] | IC50 (HCT116-G31D; HCT116 K-Ras G13D) | IC50 ([3]; Ishikawa K-Ras wild-type) | EC50 [4] | IC50 (Panc10.05-G12D; Panc10.05 K-Ras G12D) | EC50 [5] | IC50 (Panc1-G12D; Panc1 K-Ras G12D) | EC50 [6] | IC50 ([7]; HCC827 K-Ras wild-type) | IC50 (HCT116-G31D; HCT116 cells (K-Ras G13D)) | IC50 ([3]; Ishikawa cells (K-Ras wild-type)) | IC50 (Panc10.05-G12D; Panc10.05 cells (K-Ras G12D)) | IC50 (Panc1-G12D; Panc1 cells (K-Ras G12D)) | IC50 ([7]; HCC827 cells (K-Ras wild-type))
14 | Cc1nc(CN)sc1C(=O)Nc1nc(-c2ccc3c(c2)CCC(=O)N3)cs1 [Compound 147, 2-(aminomethyl)-4-methyl-N-(4-(2-oxo-1,2,3,4-tetrahydroquinolin-6-yl)thiazol-2-yl)thiazole-5-carboxamide] | – | > 25 µM | 12 µM | – | > 25 µM | > 25 µM | > 25 µM | 12 µM | 14 µM | 17 µM | > 25 µM | – | – | – | – | – | –
